Measured values from patent US7326700B2, “Cyclohexenyl phenyl carboxamides tocolytic oxytocin receptor antagonists” (Wyeth, priority 2001, dated 2008).
Structures can show the parent of a compound that is named as a salt.

biological target: T1, human oxytocin receptor (Homo sapiens, UniProt P30559); assay: Oxytocin binding in CHO cell membranes expressing human oxytocin receptors ([3H]oxytocin radioligand binding); settings: 100 nM
T1 construct: host or cells: CHO cells, stably transfected (pcDNA3.1 vector)
T1 sequence (P30559 1-389): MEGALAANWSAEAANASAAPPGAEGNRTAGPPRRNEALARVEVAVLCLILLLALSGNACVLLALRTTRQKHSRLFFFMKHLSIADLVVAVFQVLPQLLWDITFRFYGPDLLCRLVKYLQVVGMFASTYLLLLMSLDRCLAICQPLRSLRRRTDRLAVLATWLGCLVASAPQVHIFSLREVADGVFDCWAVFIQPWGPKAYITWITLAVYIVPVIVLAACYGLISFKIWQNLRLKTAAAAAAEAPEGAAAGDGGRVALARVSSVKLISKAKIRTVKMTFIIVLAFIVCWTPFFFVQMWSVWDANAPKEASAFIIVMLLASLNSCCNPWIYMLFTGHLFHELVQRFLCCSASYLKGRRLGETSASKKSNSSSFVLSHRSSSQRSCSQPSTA
Excerpt: Chinese Hamster Ovary (CHO) cells stably transfected with the human oxytocin recptor (cf. Tanizawa et al., U.S. Pat. No. 5,466,584 (1995) to Rohto Pharmaceutical Co. Ltd., Osaka, Japan) were obtained from M. Thibonnier, Case Western Reserve University School of Medicine, Cleveland, Ohio.
CHO cells transfected with the human oxytocin receptors obtained from M. Thibonnier (pcDNA3.1 vector) are allowed to grow to confluency (approx. >90%) in T-150 flasks under sterile conditions, in a cell culture medium consisting of F-12 Nutrient Mixture (HAM) with L-glutamine (Gibco Cat. #11765-054) containing 15 mM HEPES (Gibco Cat. #15630-080), 1% antibiotic/antimycotic (add 5 mL 1 00×, Gibco Cat. #15240-062 per 500 mL F-12), 400 μg/mL of Geneticin (add 4 mL of 50 mg/mL per 500 mL F-12) and 10% Fetal Bovine Serum (Qualified, heat inactivated, Gibco Cat. #16140-063). The medium is removed by aspiration and the cells are washed with 10 mL of Hank's Balanced Salt solution (Gibco Cat. #14175-095). The salt solution is removed by aspiration and the cells trypsinized with 5 mL of trypsin-EDTA (0.05% trypsin, 0.53 mM EDTA-4Na, Gibco Cat. #25300-070) for 1 min The trypsin is removed by aspiration and the cells dislodged by tapping. Cell Culture medium (e.g. 30 mL for 1:30 split) is immediately added and mixed well to inactivate trypsin. 1 mL of detached cells is added to new culture flasks containing fresh Cell Culture medium (e.g. into 25 mL per T-150 flask), and mixed gently. The cells are incubated at 37° C. in 5% CO2. The medium is changed at 3 to 4 days interval (or as appropriate). The cells grow to confluency (approx. >75%-95%) within 7-8 days. All steps are done under sterile conditions.
The cells are washed twice gently with Hank's Balanced Salt solution (eg, use 10 mL per T-150 flask). The excess solution is removed and the cells bathed for 15-30 min. in an enzyme-free Cell Dissociation Buffer (eg, use 8 mL Hank's Based, Gibco Cat. #13150-016 per T-150 flask) until cells are loosened. The contents are transferred to centrifuge tubes (50 mL size) kept in ice bath. All subsequent steps are done at 4° C. The tubes are centrifuged at 300×g for 15 min (1380 rpm on SORVAL, Model RT6000D, using rotor for 50 mL tubes). The supernatant is discarded and the cells suspended in homogenizing buffer (10 mM Tris-HCl containing 0.25 M sucrose and 1 mM EDTA, pH 7.4) ensuring that the volume of the buffer is about ten times the volume of the cell pellet. The cells are pooled into a centrifuge tube (50 mL) and homogenized with a Polytron at setting 6 for 10 sec. The homogenate is transferred into a Potter-Elvjehm homogenizer and homogenized with 3 strokes. The homogenate is centrifuged at 1500×g for 10 min at 4° C. (3100 rpm using SORVAL, model RT6000D, using rotor for 50 mL tubes). The pellet is discarded. The supernatant is centrifuged at 100,000×g for 60 min. at 4° C. (Beckman L8-80M ultracentrifuge; spin at 37,500 rpm with rotor type 70 Ti for 50 mL tubes; 38,000 rpm with type 80 Ti for 15 mL tubes; or 35,800 rpm with rotor type 45Ti). The supernantant is discarded and the pellet suspended in 3 to 4 mL of Tris buffer (50 mM TRIS-HCl, pH 7.4). The protein content is estimated by the Bradford or Lowry method. The volume of the membrane suspension is adjusted with the membrane buffer (50 mM Tris-HCl containing 0.1% BSA and 0.1 mM PMSF) to give 3.0 mg/mL (or as appropriate) of protein. The membranes are aliquoted and stored at −70° C.
In wells of a 96-well format microtiter plate, is added 90, 110 or 130 μL (to make up a final volume of 200 μL) of assay buffer containing 50 mM of Tris-HCl (pH 7.4), […], 1 mg % aprotinin, 1 mg % leupeptin, 2 mg % 1,10-phenanthroline, 10 mg % trypsin inhibitor, and 0.1 mM PMSF. The inhibitors are added on the day of the experiment. The components are mixed at room temperature, and then kept in ice bath following adjustment of the pH to 7.4. […]

Row | OT % inhibition @ 100 nM [%] | Structure (SMILES)
1 | 90 | Cc1cc(C(=O)N2Cc3ccc(C(=O)N4CCCN(C)CC4)n3Cc3ccccc32)ccc1C1=CCCCC1 [Example 13, {10-[4-(1-Cyclohex-1-en-1-yl)-3-methylbenzoyl]-10,11-dihydro-5H-pyrrolo[2,1-c][1,4]benzodiazepin-3-yl}(4-methyl-1,4-diazepan-1-yl)methanone]
2 | 57 | Cc1cc(C(=O)N2Cc3ccc(C(=O)NCCCN(C)C)n3Cc3ccccc32)ccc1C1=CCCCC1 [Example 14, 10-[4-(1-Cyclohex-1-en-1-yl)-3-methylbenzoyl]-N-[3-(dimethylamino)propyl]-10,11-dihydro-5H-pyrrolo[2,1-c][1,4]benzodiazepine-3-carboxamide]
3 | 99 | Cc1cc(C(=O)N2Cc3ccc(C(=O)N(C)CCN(C)C)n3Cc3ccccc32)ccc1C1=CCCCC1 [Example 15, 10-[4-(1-Cyclohex-1-en-1-yl)-3-methylbenzoyl]-N-[2-(dimethylamino)ethyl]-N-methyl-10,11-dihydro-5H-pyrrolo[2,1-c][1,4]benzodiazepine-3-carboxamide]
4 | 86 | Cc1cc(C(=O)N2Cc3ccc(C(=O)N4CCC(N5CCCCC5)CC4)n3Cc3ccccc32)ccc1C1=CCCCC1 [Example 17, {10-[4-(1-Cyclohex-1-en-1-yl)-3-methylbenzoyl]-10,11-dihydro-5H-pyrrolo[2,1-c][1,4]benzodiazepin-3-yl}[4-(1-piperidinyl)-1-piperidinyl]methanone]
5 | 41 | Cc1cc(C(=O)N2Cc3ccc(C(=O)NCCCn4ccnc4)n3Cc3ccccc32)ccc1C1=CCCCC1 [Example 18, 10-[4-(1-Cyclohex-1-en-1-yl)-3-methylbenzoyl]-N-[3-(1H-imidazol-1-yl)propyl]10,11-dihydro-5H-pyrrolo[2,1-c][1,4]benzodiazepine-3-carboxamide]
6 | 52 | Cc1cc(C(=O)N2Cc3ccc(C(=O)NCCN4CCCCC4)n3Cc3ccccc32)ccc1C1=CCCCC1 [Example 20, 10-[4-(1-Cyclohex-1-en-1-yl)-3-methylbenzoyl]-N-[2-(1-piperidinyl)ethyl]-10,11-dihydro-5H-pyrrolo[2,1-c][1,4]benzodiazepine-3-carboxamide]

The remaining lines, values behind:

Row | Structure (SMILES) | OT % inhibition @ 100 nM [%]
7 | Cc1cc(C(=O)N2Cc3ccc(C(=O)N(C)CCCN(C)C)n3Cc3ccccc32)ccc1C1=CCCCC1 [Example 16, 10-[4-(1-Cyclohex-1-en-1-yl)-3-methylbenzoyl]-N-[3-(dimethylamino)propyl]-N-methyl-10,11-dihydro-5H-pyrrolo[2,1-c][1 ,4]benzodiazepine-3-carboxamide] | 99
8 | Cc1cc(C(=O)N2Cc3ccc(C(=O)N4CCC(N5CCCC5)CC4)n3Cc3ccccc32)ccc1C1=CCCCC1 [Example 19, {10-[4-(1-Cyclohex-1-en-1-yl)-3-methylbenzoyl]-10,11-dihydro-5H-pyrrolo[2,1c][1,4]benzodiazepin-3-yl}[4-(1-pyrrolidinyl)-1-piperidinyl]methanone] | 82

same assay, conditions: 100 nM, read-out: OT % inhibition @ 100 nM

Row | inhibition at 0.1 µM [%] | Structure (SMILES)
9 | 100 | COc1cc(C2=CCCCC2)c(Cl)cc1C(=O)N1Cc2ccc(C(=O)N(C)CCCN(C)C)n2Cc2ccccc21 [Example 2, 10-(5-Chloro-4-cyclohex-1-en-1-yl-2-methoxybenzoyl)-N-[3-(dimethylamino)propyl]-N-methyl-10,11-dihydro-5H-pyrrolo[2,1-c][1,4]benzodiazepine-3-carboxamide]
10 | 94 | Cc1cc(C(=O)N2Cc3ccc(C(=O)N4CCN(CCCN(C)C)CC4)n3Cc3ccccc32)ccc1C1=CCCCC1 [Example 5, [10-(4-Cyclohex-1-en-1-yl-3-methyl-benzoyl)-10,11-dihydro-5H-pyrrolo[2,1-c][1,4]benzodiazepin-3-yl]-[4-(3-dimethylamino-propyl)-piperazin-1-yl]-methanone]
11 | 91 | Cc1cc(C(=O)N2Cc3ccc(C(=O)N4CCN(CCCN(C)C)CC4)n3Cc3ccccc32)ccc1C1=CCCc2ccccc21 [Example 7, {10-[4-(3,4-Dihydro-naphthalen-1-yl)-3-methyl-benzoyl]-10,11-dihydro-5H-pyrrolo[2,1-c][1,4]benzodiazepin-3-yl}-[4-(3-dimethylamino-propyl)-piperazin-1-yl]-methanone]
12 | 91 | CC1=C(c2ccc(C(=O)N3Cc4ccc(C(=O)N5CCN(C)CC5)n4Cc4ccccc43)cc2C)CCCC1O (centres unmarked) [Example 10, [4-(3-Hydroxy-2-methyl-cyclohex-1-en-1-yl)-3-methyl-phenyl]-[3-(4-methyl-piperazine-1carbonyl)-10,11-dihydro-5H-pyrrolo[2,1-c][1,4]benzodiazepin-10-yl]-methanone]
13 | 86 | CC1=C(c2ccc(C(=O)N3Cc4ccc(C(=O)N5CCN(C)CC5)n4Cc4ccccc43)cc2C)CCC[C@H]1O [Example 11, [4-((3R)-3-Hydroxy-2-methyl-cyclohex-1-en-1-yl)-3-methyl-phenyl]-[3-(4-methyl-piperazine-1-carbonyl)-10,11-dihydro-5H-pyrrolo [2,1-c][1,4]benzodiazepin-10-yl]-methanone]

same assay, conditions: value in parentheses, read-out: OT (IC50)

Row | IC50 [nM] | Structure (SMILES)
14 | 1.88 | COc1cc(C2=CCCCC2)c(Cl)cc1C(=O)N1Cc2ccc(C(=O)N3CCC[C@H]3CN3CCCC3)n2Cc2ccccc21 [Example 1, 4-Chloro-5-cyclohex-1-en-1-yl-2-[(3-{[(2S)-2-(pyrrolidin-1-ylmethyl)pyrrolidin-1-yl]carbonyl}-5H-pyrrolo [2,1-c][1,4]benzodiazepin-10(11H)-yl)carbonyl]phenyl methyl ether]
15 | 9.04 | COc1cc(C2=CCCCC2)c(Cl)cc1C(=O)N1Cc2ccc(C(=O)N(C)CCCN(C)C)n2Cc2ccccc21 [Example 3, 10-(5-Chloro-4-cyclohex-1-en-1-yl-2-methoxybenzoyl)-N-[3-(dimethylamino)propyl]-N-methyl-10,11-dihydro-5H-pyrrolo[2,1-c][1,4]benzodiazepine-3-carboxamide citric acid salt]
16 | 7.47 | Cc1cc(C(=O)N2Cc3ccc(C(=O)N4CCN(C)CC4)n3Cc3ccccc32)ccc1C1=CCCCC1 [Example 4, [10-(4-Cyclohex-1-en-1-yl-3-methyl-benzoyl)-10,11-dihydro-5H-pyrrolo[2,1-c][1,4]benzodiazepin-3-yl]-(4-methyl-piperazin-1-yl)-methanone]
17 | 25.3 | Cc1cc(C(=O)N2Cc3ccc(C(=O)N4CCN(C)CC4)n3Cc3ccccc32)ccc1C1=CCCc2ccccc21 [Example 6, {10-[4-(3,4-Dihydro-naphthalen-1-yl)-3-methyl-benzoyl]-10,11-dihydro-5H-benzo[e]pyrrolo[1,2-a][1,4]diazepin-3-yl}-(4-methyl-piperazin-1-yl)-methanone]
